From patent US20230210116A1, “HONEYBEE REPELLENT” (EARTH CORPORATION, priority 2020, published 2023)

system: honeybees; assay: Test for Confirmation of Honeybee Repelling Effect 1, 2, 3 (feeding station with 40% sugar water); assay type: in vivo; conditions: 2 % strength
Source text: The following were used as the test samples for Examples: 2% by weight per volume ethanol solutions of octane (a-1), tetradecane (a-2), heptadecane (a-3), nonadecane (a-4), 2-acetylfuran (b-1), 5-methyl-2-furaldehyde (b-2), furfural (b-3), furaneol (c-1), 2-acetylpyrrole (d-1), 1-benzylpyrrole (d-2), 1-octanol (e-1), 1-dodecanol (e-2), and 1-octadecanol (e-3), respectively; and 2% by weight per volume aqueous solutions of furfuryl alcohol (b-4), sotolon (c-2), and α-angelicalactone (c-3), respectively.
The following were used as the test samples for Comparative Examples: 2% by weight per volume ethanol solutions of eicosane (carbon number 20, p-1), heneicosane (carbon number 21, p-2), 2-methyloctane (branched alkane, p-3), tributyl o-acetylcitrate (p-4), and 1-methylpyrrole (p-5), respectively; and 2% by weight per volume aqueous solutions of 2-methyltetrahydrofuran-3-one (p-6) and acetic acid (p-7), respectively.
Ethanol alone and water alone were used as samples for correction.
The cotton pads 13 were impregnated with 40% sugar water (80 g), after which disposable wooden chopsticks 15 (80 mm in length) were placed over the cotton pads on the lid surface as “landing areas,” for use as “test insect (honeybee) feeding station 1” 10.
A nest box of test insects (honeybees) (1 colony: approx. 6,000 bees) was placed at the center of a glass hothouse (bottom face: 5 m×10 m, height (highest part): 3 m, temperature: 25° C.), and the aforementioned “test insect (honeybee) feeding station 1” was installed at a location 2 meters away from the nest box.
After confirming that at least five test insects (honeybees) were feeding at the above “test insect (honeybee) feeding station 1” installed in the hothouse, test 1 was conducted to measure the “approaching count (Mz)” and “landing count (My)” and calculate the “landing rate (Mx).”
Next, the “test insect (honeybee) feeding station 1” installed in the hothouse was replaced with each “test insect (honeybee) feeding station 2” which was let to stand still for 5 minutes, after which test 2 was conducted to measure the “approaching count (Nz)” and “landing count (Ny)” and calculate the “landing rate (Nx).”
Approaching count: Total number of times a honeybee has approached within 25 cm of the cotton wools at the feeding station during 5 minutes
Landing count: Total number of honeybees that have remained for at least 1 second on the cotton pads at the feeding station during 5 minutes
Landing rate (%): (Landing count/Approaching count)×100
The “repelling rate Q” and “corrected repelling rate R” were calculated from the above “landing rates” using the calculation formula below. For the “repelling rate of sample for correction” used to calculate the “corrected repelling rate R,” the repelling rate of each of the samples for correction above (ethanol alone or water alone being a solvent for the active ingredient) was used.
Repelling rate Q (%)={(Mx)−(Nx)}/(Mx)×100
Corrected repelling rate R (%)={Repelling rate of test sample−Repelling rate of sample for correction}/{100−Repelling rate of sample for correction}×100
The following were used as the test samples for Examples: 0.1% by weight per volume ethanol solutions of 3-methyl-2-butanol (e-4), carvacrol (x-1), isoeugenol (x-2), cinnamyl alcohol (x-3), diacetone alcohol (x-4), α-amylcinnamaldehyde (x-5), 3-methyl-2-butenal (x-6), valeraldehyde (x-7), ethyl cinnamate (x-8), methyl cinnamate (x-9), ethyl isovalerate (x-10), isoamyl formate (x-11), 5-ethyl-2-methylpyridine (x-12), 2-(3-phenylpropyl)pyridine (x-13), 2,6-dimethylpyridine (x-14), ß-ionone (x-15), 2-acetylthiazole (x-16), butylamine (x-17), and citronella oil (x-18), respectively; and a 0.1% by weight per volume aqueous solution of (3-amino-3-carboxypropyl)dimethylsulfonium chloride (x-19).

Molecule | Corrected repelling rate R (%)
O=Cc1ccco1 [b-3, furfural] | 93.6%

same assay, conditions: Test 1; 2% by weight per volume solution

Molecule | repelling effect / repelled behaviors of honeybees (in words)
Cn1cccc1 [p-5, 1-methylpyrrole, reference compound] | not observed at all
CCCCCCCCCCCCCCCCCCCC [p-1, eicosane, reference compound] | not observed at all
c1ccc(Cn2cccc2)cc1 [d-2, 1-benzylpyrrole] | excellent repelling effect
CCCCCCCCCCCCCCCCC [a-3, heptadecane] | excellent repelling effect
CC1OCCC1=O (stereo not drawn) [p-6, 2-methyltetrahydrofuran-3-one, reference compound] | not observed at all
CC(=O)c1ccc[nH]1 [d-1, 2-acetylpyrrole] | excellent repelling effect
CCCCCCCCCCCCCCCCCCCCC [p-2, heneicosane, reference compound] | not observed at all

same assay, conditions: Test 1; honeybees; 2% by weight per volume solution, 5 mL sprayed (active ingredient 0.1 g)

Molecule | Corrected repelling rate R (%)
Cn1cccc1 [p-5, 1-methylpyrrole, reference compound] | <0%
Cc1ccc(C=O)o1 [b-2, 5-methyl-2-furaldehyde] | 55.3%
CCCCCCCCCCCCCCCCCCCC [p-1, eicosane, reference compound] | <0%
c1ccc(Cn2cccc2)cc1 [d-2, 1-benzylpyrrole] | 68.3%
CCCCCCCCCCCCCCCCCCO [e-3, 1-octadecanol] | 16.2%
CCCCCCCCO [e-1, 1-octanol] | 58.3%
CCCCCCCCCCCCCCCCC [a-3, heptadecane] | 28.2%
CC(=O)O [p-7, acetic acid, reference compound] | <0%
CC1OCCC1=O (stereo not drawn) [p-6, 2-methyltetrahydrofuran-3-one, reference compound] | <0%
CCCCCCCCCCCCCCCCCCC [a-4, nonadecane] | 56.7%
CCCCOC(=O)CC(CC(=O)OCCCC)(OC(C)=O)C(=O)OCCCC [p-4, tributyl o-acetylcitrate, reference compound] | <0%
CCCCCCCCCCCCO [e-2, 1-dodecanol] | 84.6%
CC(=O)c1ccc[nH]1 [d-1, 2-acetylpyrrole] | 37.0%
CCCCCCCCCCCCCCCCCCCCC [p-2, heneicosane, reference compound] | <0%

same assay, conditions: Test 2; honeybees; 0.1% by weight per volume solution, 5 mL (active ingredient 5 mg)

Molecule | Corrected repelling rate R (%)
CC(=O)c1nccs1 [x-16, 2-acetylthiazole] | 61.7%
CCCCCC(C=O)=Cc1ccccc1 [x-5, α-amylcinnamaldehyde] | 77.8%
CC(=O)CC(C)(C)O [x-4, diacetone alcohol] | 20.9%
CC=Cc1ccc(O)c(OC)c1 [x-2, isoeugenol] | 64.6%

same assay, conditions: Test 3; 0.1% by weight per volume solution, 5 mL

Molecule | Corrected repelling rate (%) Honeybees
Cc1cncc(C)n1 [y-60, 2,6-dimethylpyrazine] | 35.4%
Cc1cnccn1 [y-58, 2-methylpyrazine] | 55.0%
CC(C)COC(=O)Cc1ccccc1 [y-21, isobutyl phenylacetate] | 80.5%
CC(C)CCO [e-6, 3-methyl-1-butanol] | 65.4%
Cc1ccc2ncccc2c1 [y-80, 6-methylquinoline] | 74.7%
CC(=O)OCCC(C)CCC=C(C)C (stereo not drawn) [y-30, citronellyl acetate] | 91.1%
C/C=C(\C)C=O [y-13, trans-2-methyl-2-butenal] | 67.4%
CC(=O)/C=C/C1C(C)=CCCC1(C)C (stereo not drawn) [y-71, α-ionone] | 90.0%
O=C1CCCO1 [y-64, γ-butyrolactone] | 27.5%
CC(=O)OCc1ccccc1 [y-19, benzyl acetate] | 83.2%
CC(=O)c1ccc(C)cc1 [y-68, 4-methylacetophenone] | 84.3%
c1ccc2scnc2c1 [y-78, benzothiazole] | 87.7%
CCCCCCCCCC(=O)OCC [y-38, ethyl decanoate] | 58.7%
CCCCOC(=O)CCC [y-35, butyl butyrate] | 61.7%
CCCCCCCC=O [y-12, n-octanal] | 96.3%
CCC(=O)OCc1ccccc1 [y-23, benzyl propionate] | 26.0%
CCC=O [y-11, propionaldehyde] | 64.0%
CC(=O)CC(C)=O [y-70, acetylacetone] | 21.5%
(−)-menthyl succinate [y-32] | 57.7%

Molecule | Corrected repelling rate (%) Honeybees
CCc1nccnc1CC [y-56, 2,3-diethylpyrazine] | 57.0%
CCc1nccnc1C [y-59, 2-ethyl-3-methylpyrazine] | 72.8%
Sc1ccc2ccccc2c1 [y-88, 2-naphthalenethiol] | 74.6%
Cc1cccc2nccnc12 [y-83, 5-methylquinoxaline] | 78.7%
C/C=C(\C)C(=O)OC/C=C(\C)CCC=C(C)C [y-31, geranyl tiglate] | 70.3%
O=C(O)c1ccc(O)cc1 [y-77, 4-hydroxybenzoic acid] | 80.1%
COC[C@@H]1CCCN1 [y-93, (S)-2-(methoxymethyl)pyrrolidine] | 66.9%
CCCOC(=O)c1ccc(O)cc1 [y-16, propyl 4-hydroxybenzoate] | 89.7%
CC(C)CO.CC(C)CO [e-5, 2-methyl-1-propanol (isobutanol)] | 88.2%
CCCCCCCC(=O)OCCCC [y-36, butyl n-octanoate] | 52.0%
O=C(O)c1ccnc2ccccc12 [y-82, 4-quinolinecarboxylic acid] | 55.5%
CCCCCCCCCCCCCCC(=O)OCC [y-40, ethyl pentadecanoate] | 77.6%
CN1CCCC1 [y-92, 1-methylpyrrolidine] | 25.9%
CC(=O)OC(C)(C)C1CC=C(C)CC1 (stereo not drawn) [y-29, terpinyl acetate] | 81.2%
CNc1ccccc1C(=O)OC [y-34, methyl N-methylanthranilate] | 78.6%
CCCC=O [y-15, butylaldehyde] | 51.0%
CCCCCCCCCCCCCCCCCC(=O)O [y-74, stearic acid] | 33.7%
CC(=O)c1ccc2ccccc2c1 [y-67, 2′-acetonaphtone] | 91.0%
CC(=O)OC1CC(C)CCC1C(C)C (stereo not drawn) [y-26, menthyl acetate] | 76.4%

same assay, conditions: Test 3; 2.0% by weight per volume solution, 5 mL

Molecule | Corrected repelling rate (%) Honeybees
C=Cc1ccc(OC)cc1 [y-90, 4-methoxystyrene] | 95.6%
CC(=O)c1ccccc1 [y-69, acetophenone] | 98.9%
CCCCCCCC(=O)OCC [y-48, ethyl octanoate] | 94.1%
CCc1cccnc1 [y-62, 3-ethylpyridine] | 58.3%
CC(C)CCOC(=O)CC(C)C [y-52, isoamyl isovalerate] | 23.5%
c1cnc2c(n1)CCCC2 [y-86, 5,6,7,8-tetrahydroquinoxaline] | 73.2%
CC(CC=O)CCCC(C)(C)O (stereo not drawn) [y-9, hydroxycitronellal] | 92.8%
CCCCSCCCC [y-94, butyl sulfide] | 17.2%
CC(=O)OCCC(C)C [y-53, isoamyl acetate] | 23.0%
CCOC(=O)Cc1ccccc1 [y-24, ethyl phenylacetate] | 55.5%
CCC(=O)O [p-8, propionic acid, reference compound] | <0%
